The values that follow come from patent US20100075969A1, “Angiogenesis” (UNIVERSITY OF LEICESTER, priority 2006, published 2010).

In one experiment the test system is aortic rings. In words: Rat aortic ring assay (capillary outgrowth). The format is cell-based. As to conditions: after 90 hours; 10 nM ICI 118,551 or 1 μM salbutamol; vs untreated. On the procedure: A rat aortic ring assay (as described in Nicosia and Ottinetti (1990) Lab Invest 63 (1), 115-122; and Diglio et al (1989) Lab Invest 60 (4), 523-531) was used to study the effect of β2-AR ligands on vessel formation. Rat aorta was obtained from animals that were euthanised under a Home Office Approved Schedule 1 method. The aorta was cut into small rings with sterile scissors and each piece was submerged under a 50 μl bead of Matrigel in the bottom of each in a 24-well dish. […] Vessel growth was observed using an inverted Nikon Diaphot microscope every 30 hours and images were captured as described in Pullar et al (2005) J Cell Sci 118 (Pt 9), 2023-2034; Pullar et al (2006) Mol Biol Cell and Pullar et al (2001) Cell Motil Cytoskeleton 50 (4), 207-217.

Another experiment relates to endothelial cells. In words: In vitro model of angiogenesis: tubule formation on Matrigel. The format is cell-based. On the procedure: An experimental in vitro model was employed to observe the effect of β2-AR ligands (ie agonists and antagonists) on endothelial cell vessel formation. […] The endothelial cells plated on the top of the Matrigel were maintained in a 37° C. incubator with 5% CO2 Tubule formation was observed every 4 hours up to 21 hours using an inverted Nikon Diaphot microscope.

The test system of experiment [1] is dermal microvascular endothelial cells. In words: Galvanotaxis in applied electric field, dermal microvascular endothelial cells. As to conditions: electric field 100 mV/mm. The format is cell-based, human. The method, then:
(§1) Endothelial cells were seeded at low density in medium within electrostatic chambers for 2-3 hours prior to exposure to an electric field (EF). A roof consisting of a No 1 cover slip was applied and sealed on top of the chamber, as previously described (in Pullar et al (2005) J Cell Sci 118 (Pt 9), 2023-2034; Pullar et al (2006) Mol Biol Cell and Pullar et al (2001) Cell Motil Cytoskeleton 50 (4), 207-217). A direct current EF of 100 mV/mm was applied through agar bridges connecting silver/silver chloride electrodes to the culture medium at either side of the chamber. The chamber was placed on an inverted microscope with temperature controlled at 37° C.
(§2) Time-lapse images were recorded every 10 minutes over 1 hour and analyzed with Improvision software as previously described (Pullar et al (2005) J Cell Sci 118 (Pt 9), 2023-2034; Pullar et al (2006) Mol Biol Cell and Pullar et al (2001) Cell Motil Cytoskeleton 50 (4), 207-217). […] Therefore, the average of directedness values of a population of cells gives an objective quantification of how, directionally, cells have moved within the electric field. […] Migration rate was analyzed with the following two parameters, ie trajectory speed (μm/min) is the total length of the migration trajectory of a cell divided by the given period of time (ie 60 minutes).

Experiment [2] shares this test system. In words: Scratch (wound healing) assay, dermal microvascular endothelial cells. The format is cell-based, human. As to conditions: 10 nM ICI 118,551 or 1 μM salbutamol. The method, then:
Endothelial cells were grown to confluence in medium on plastic tissue culture dishes (Fisher Scientific, Pittsburgh, Pa.) coated with 60 μg/ml collagen I (Vitrogen 100, Collagen Corp., Palo Alto, Calif.) in PBS for 1 hour at 37° C. […] Demarcated areas of each wound were photographed on an inverted Nikon Diaphot microscope at the time of wounding (time 0) up to wound healing as described in Pullar et al., (2003) J Biol Chem 278 (25), 22555-22562. Image J was used to measure each demarcated wound area at time 0 and 20 hours post wounding and the results were averaged to calculate the % healing for control and β2-AR ligand-treated cells.

For another experiment, the system named is MTLn3 cells. In words: Galvanotaxis in applied electric field, MTLn3 mammary adenocarcinoma cells. The format is cell-based.
The subject of the next experiment is B16-BL6 melanoma cells. In words: β2-AR/melanoma in-vivo study (B16-BL6 in SKH1 mice). As to conditions: for tumour surface area / tumour average surface area: s.c. pump, ICI 118,551 0.75 mg/kg/day or salbutamol 3 mg/kg/day, 7 mice per group.
Experiment [3] has as its system chick chorioallantoic membrane (CAM). In words: Chick chorioallantoic membrane (CAM) assay. The format is in vivo. As to conditions: day 8 chick embryos, 48 hours; 10 μM agonist, 10 μM forskolin or 10 nM ICI 118,551; control 15. On the procedure: Fertilised chicken eggs were obtained within the first two days of embryonic development, and were cleaned and incubated at 37° C. for 24 hours. On day 3 of development, 1-2 ml of albumin was removed from the apex end of each egg with a sterile needle. A window of 1.5×1.5 cm was created in the shell with a Dremmel tool, and was sealed with clear adhesive tape. […] Images of the exposed vasculature were captured 48 hours later using a Nikon microscope/imaging system. Scale bar=1 mm. Bifurcation points were counted in four fields for the control/treatment groups.

Experiment [4] deals with aortic macrovascular endothelial cells. In words: Galvanotaxis in applied electric field, aortic macrovascular endothelial cells. The format is cell-based, human. As to conditions: electric field 100 mV/mm. The method, then:
as §1, §2

[5] abbreviates: 1 μM salbutamol, control cosine=0.5.

Text for B16-BL6 melanoma cells: Twenty one, 5 week-old female SKH1 mice (immunocompetent, hairless albino strain, Charles River, Wilmington, Mass.) weighing 18 g-25 g were divided into 3 groups of 7 mice.
Melanomas were imaged daily by both transillumination and surface photography at 2× magnification, using an upright Nikon microscope controlled by Pixera software (San Jose, Calif.). Mice were sacrificed after 11 days by CO2 asphyxiation, and the tumor, lungs and the liver were excised and fixed in 10% buffered formalin for 7 days.
All mice were sacrificed by CO2 asphyxiation, 11 days post melanoma cell injection. The tumours were excised from their sub-dermal location, fixed in saline-buffered 10% formalin for 10 days, and then weighed. The average weight of the tumours from each group was calculated and statistically analysed.

For `Cc1ccc(OCC(O)C(C)NC(C)C)c2c1CCC2` (stereo not drawn) [ICI 118,551], the “capillary outgrowth from cut edges of aortic rings” value in the experiment with aortic rings is listed as “decreased the length of the capillaries”. The “time to highly organized, mature capillary network on Matrigel” value in the experiment with endothelial cells (10 nM ICI 118,551, untreated cells: within 21 hours) is at most 12 h. Besides, the “increase in directional migration” value in experiment [1] (10 nM ICI 118,551) and in experiment [4] (10 nM ICI 118,551) was at most 60% in each case. Further, the “increase in rate of wound closure” value in experiment [2] was determined as 40%. Moreover, in the experiment on MTLn3 cells, the effect on galvanotaxis result is “little effect on galvanotaxis”. Further, the “average weight of tumours” value in the experiment with B16-BL6 melanoma cells (11 days post melanoma cell injection, vs control group) is listed as “statistically lower than that for the control group”. Further, in the experiment on B16-BL6 melanoma cells (after 3 days, of 7 mice, ICI 118,551 0.75 mg/kg/day), the “number of mice without any signs of tumour development” value is on record as “two”. Besides, in the experiment on B16-BL6 melanoma cells (after 3 days), the tumour surface area was 1.8+/−0.61 mm^2. Further, in the experiment with B16-BL6 melanoma cells (after 7 days and by end of study (11 days), of 7 mice, ICI 118,551 0.75 mg/kg/day), the “number of mice with no visible signs of tumour development” value is reported as “one”. In addition, the “tumour average surface area” value in the experiment on B16-BL6 melanoma cells (after 7 days) is recorded as 4.4+/−1.5 mm^2. Also, the “size of excised tumours (photograph)” value in the experiment with B16-BL6 melanoma cells (at eleven days, vs control) was “much smaller than those in the control sample”. Further, the “number of vessel bifurcation points” value in experiment [3] is given as over 50.
Take `C=C[C@@]1(C)CC(=O)[C@]2(O)[C@@]3(C)[C@@H](O)CCC(C)(C)[C@@H]3[C@H](O)[C@H](OC(C)=O)[C@@]2(C)O1` [forskolin]: the “number of vessel bifurcation points” value in experiment [3] amounted to 5.
With `CC(C)(C)NCC(O)c1ccc(O)c(CO)c1` (stereo not drawn) [salbutamol], the “capillary outgrowth from cut edges of aortic rings” value in the experiment with aortic rings is “significantly increased the length and number of the capillaries”. Moreover, the “capillary network formed on Matrigel” value in the experiment with endothelial cells (by 21 hours, 1 μM salbutamol) is “disorganized, immature capillary network”. The “migration directedness (cosine)” value in experiment [1] (setting [5]) and in experiment [4] (setting [5]) was 0 throughout. Besides, in experiment [2], the “increase in rate of wound closure” value is given as 40%. The “reduction of directional migration” value in the experiment on MTLn3 cells is reported as “more than 50%”. The tumour surface area in the experiment with B16-BL6 melanoma cells (after 3 days) is recorded as 4.1+/−1.3 mm^2. Also, the “tumour average surface area” value with B16-BL6 melanoma cells (after 7 days) is 10.4+/−2.9 mm^2. Also, in the experiment with B16-BL6 melanoma cells (after 7 days, single mouse, salbutamol 3 mg/kg/day), the “surface area of the very large tumour of one mouse” value was 24.8 mm^2. The “number of vessel bifurcation points” value in experiment [3] is on record as 4.
